According to patent US12702715B2, “Targeted RNA degradation allows precision repurposing of protein-targeted small molecule medicines to RNA” (University of Florida Research Foundation, Incorporated, priority 2020, dated 2026):
“Also recorded” adds a separate entry of the source.

Experiments:
FLT3 = target: T1, FLT3 (Homo sapiens, UniProt P36888); test: Cellular Chem-CLIP/C-Chem-CLIP to study occupancy of an RTK; assay type: cell-based
T1 construct: endogenous in cells; host or cells: MDA-MB-231
T1 sequence (P36888 27-993): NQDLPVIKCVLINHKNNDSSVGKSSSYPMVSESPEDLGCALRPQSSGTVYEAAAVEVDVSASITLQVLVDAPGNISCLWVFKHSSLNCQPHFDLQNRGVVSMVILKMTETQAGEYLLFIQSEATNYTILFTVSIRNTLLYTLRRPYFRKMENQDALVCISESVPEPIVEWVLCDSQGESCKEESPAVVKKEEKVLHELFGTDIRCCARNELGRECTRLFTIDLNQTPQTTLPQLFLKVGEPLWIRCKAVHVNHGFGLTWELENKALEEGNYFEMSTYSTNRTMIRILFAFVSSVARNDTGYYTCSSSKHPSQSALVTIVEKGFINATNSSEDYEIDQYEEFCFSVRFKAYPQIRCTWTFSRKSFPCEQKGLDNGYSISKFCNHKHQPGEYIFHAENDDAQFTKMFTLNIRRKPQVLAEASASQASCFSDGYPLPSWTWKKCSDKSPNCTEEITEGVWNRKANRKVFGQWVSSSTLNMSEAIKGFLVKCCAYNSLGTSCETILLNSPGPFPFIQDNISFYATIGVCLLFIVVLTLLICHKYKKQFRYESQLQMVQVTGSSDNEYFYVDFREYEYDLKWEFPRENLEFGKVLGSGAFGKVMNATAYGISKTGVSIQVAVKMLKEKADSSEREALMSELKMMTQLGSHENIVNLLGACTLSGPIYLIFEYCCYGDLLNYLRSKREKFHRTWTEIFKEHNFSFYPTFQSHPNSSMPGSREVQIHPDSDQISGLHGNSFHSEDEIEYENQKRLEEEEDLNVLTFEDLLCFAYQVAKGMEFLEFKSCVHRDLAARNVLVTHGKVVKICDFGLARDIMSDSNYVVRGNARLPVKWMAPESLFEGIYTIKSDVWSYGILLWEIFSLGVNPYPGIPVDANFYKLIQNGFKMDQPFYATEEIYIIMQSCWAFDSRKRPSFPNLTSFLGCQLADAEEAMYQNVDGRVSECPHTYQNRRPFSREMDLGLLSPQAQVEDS
Description: Cellular Chem-CLIP/C-Chem-CLIP to Study Occupancy of an RTK. Compound treatment and isolation of cells was completed as described for cellular occupancy studies of pre-miR-21. Total protein was extracted and concentration determined as described in the “Western Blotting” section. Approximately 1 mg of total protein was used for following pull-down experiments, using a protocol adapted from a previously published method 8. Protein cross-linked to the probe were clicked to disulfide biotin azide as described above except the amount of each reagents was doubled (20 μL/sample). Then, to the mixture was added ice-cold, 4:1 mixture of methanol/chloroform (2.5 mL) followed by 1 mL of ice-cold 1×DPBS. The mixture was centrifuged at 5000×g for 10 min at 4° C. to fractionate a protein interphase between organic and aqueous layers. […] The washed protein mixture was centrifuged at 5000×g for 10 min at 4° C. to pellet the protein. The pellet was dissolved in H2O, and to this solution was added 20 μLL streptavidin beads for 30 min at room temperature. The solution was removed, and the beads were washed once with 0.2% SDS in 1×DPBS, twice with detergent-free 1×DPBS and twice with nanopure water. After these washing steps, protein was cleaved as described above. The supernatant was collected, and protein concentration was determined with Pierce Micro BCA Protein Assay kit. […] Sample preparation was completed as described above for cellular Chem-CLIP studies. Western blotting was performed on total protein (10 μg) before or after pull-down, indicated as “Input” or “Output”, as described in Western Blotting.

MCF-10A cells = test: Boyden chamber invasion assay, MCF-10A; assay type: cell-based, human; details: for invasion phenotype of MCF-10A acquired by transfection of mutant pre-miR-21: 1 binding site ablated
Description: Cell Culture. Cells were cultured at 37° C. and 5% CO2. MDA-MB-231 cells (HTB-26, ATCC) were cultured in RMPI 1640 medium with L-glutamine & 25 mM HEPES supplemented with 1× Antibiotic/Antimycotic solution (Corning) and 10% FBS. MCF-10A cells (CRL-10317, ATCC) were cultured in 1×DMEM/F12 50/50 with L-glutamine & 15 mM HEPES (Corning) supplemented with 20% FBS, 1× Antibiotic/Antimycotic solution, 20 ng/mL human epidermal growth factor (Pepro Tech, Inc.), 10 μg/mL insulin (Sigma-Aldrich), and […] hydrocortisone (Pfaltz & Bauer). For compound treatment, compound stocks either in DMSO or water were diluted in growth medium and added to cells for the indicated time. Plasmid DNA to overexpress pre-miR-21 in pcDNA 3.1 (Addgene 21114) or a plasmid DNA encoding the pre-miR-21 mutant (custom purchased from GenScript USA, Inc.) was transfected with jetPRIME per the manufacturer's protocol. After transfection, the medium was replaced with growth medium containing the compound of interest, prepared as described above. The RNase L-targeting siRNA or a control siRNA was transfected with Lipofectamine RNAiMAX reagent (Invitrogen) per the manufacturer's protocol.
(§1) Boyden Chamber Invasion Assay. MDA-MB-231 or MCF-10A cells (5×10^4) in serum free growth medium with or without compound treatment were seeded into hanging cell culture inserts (for 24-well plates) pre-coated with Matrigel. Complete growth medium was added to the bottom well. After 16-24 h, the medium was removed, and the hanging inserts were washed with 1×DPBS twice and then fixed with 4% paraformaldehyde in 1×DPBS at room temperature for 20 min. Then the inserts were washed twice with 1×DPBS and stained with 0.1% (w/v) crystal violet 1×DPBS for 20 min. The inserts were washed twice with nanopure water and once with 1×DPBS. Cells on the surface of the Matrigel (non-invasive) were removed with cotton swabs and invading cells were counted and imaged under a microscope.

MDA-MB-231 cells = test: Boyden chamber invasion assay, MDA-MB-231; assay type: cell-based, human
Description: as §1

[1] = test system: RTK / phosphorylation of ERK (pERK); test: Western blot of ERK phosphorylation (functional RTK inhibition) in MDA-MB-231 cells; assay type: cell-based, human; details: for IC50: Homo sapiens, MDA-MB-231; for dose inhibiting ERK phosphorylation to the similar extent: Western blot quantification
Description: Western Blotting. MDA-MB-231 cells were plated in 6-well plates. […] The cells were harvested by trypsinization, and total protein was extracted with MPER (Mammalian Protein Extraction Reagent, Thermo Scientific) as previously described^6. Protein concentrations were determined by using a Pierce Micro BCA Protein Assay kit (Fisher Scientific). […] ImageJ software was used for quantification of the protein bands. […] In each case, the secondary antibody was diluted two times more than the primary antibody.

Compound	fold decrease / difference in cellular protein occupancy versus 1 (FLT3)	competition of FLT3 enrichment by probe 4 (FLT3; 0.01-10 μM pre-treatment)	IC50 (FLT3; C-Chem-CLIP, MDA-MB-231, read-out: IC50 for inhibition of the Chem-CLIP probe binding to FLT3)	concentration competing off probe 4 from FLT3 to the same extent (FLT3; probe 4 1 μM)	invasion phenotype of MCF-10A acquired by transfection of mutant pre-miR-21 (MCF-10A cells)	invasion of MDA-MB-231 cells (MDA-MB-231 cells)	fold decrease of RTK inhibition relative to 1 [1]	shift of selectivity toward miR-21 over RTK ([1]; 25-fold (miR-21) × 100-fold (RTK), relative to 1)	IC50 [1]	inhibition of ERK phosphorylation compared to 1 ([1]; Western blot)	dose inhibiting ERK phosphorylation to the similar extent [1]	enrichment of FLT3 by probe (FLT3; MDA-MB-231)	invasion phenotype of MCF-10A acquired by transfection of wild type pre-miR-21 (MCF-10A cells)	invasive nature of MCF-10A cells (MCF-10A cells; no overexpression)
CCOC(=O)C1=C(Nc2ccccc2)S/C(=C\c2ccc(OCCOCCOCCOCCNC(=O)NCCN3CCN(c4ccc5[nH]c(-c6c(N)c7c(F)cccc7[nH]c6=O)nc5c4)CC3)c(O)c2)C1=O [Compound 2, Ribotac-Dovitinib]	100 fold	competed off	10 µM	10 µM	had no effect; also recorded: unable to rescue	reduced the invasive characteristic	100 fold	2,500 fold	10 µM	reduced ability to inhibit ERK phosphorylation compared to 1	5 µM			
C#CCCC1(CCC(=O)NCCN2CCN(c3ccc4[nH]c(-c5c(N)c6c(F)cccc6[nH]c5=O)nc4c3)CC2)N=N1 [Compound 4]												enriched		
CN1CCN(c2ccc3nc(-c4c(N)c5c(F)cccc5[nH]c4=O)[nH]c3c2)CC1 [Compound 1, Dovitinib, reference compound]					insensitive	inhibited invasiveness; also recorded: reduced			0.1 µM		0.05 µM		reverted this phenotype; also recorded: inhibited	had no effect
